In patent US20110200992A1, “Biological Compositions, Articles and Methods for Monitoring Sterilization Processes” (priority 2008, published 2011):

How the values were obtained:
[1] = system: Gb. stearothermophilus spores; test: Fluorescence with live and dead (sterilized) spores, dye and nutrient medium treated with the same sterilizing conditions (Example 3); assay type: cell-based
Experimental: A glass vial containing 1 mL of 1×E7 Gb. stearothermophilus spore suspension described above and a glass vial containing 1 mL of medium containing a cell-permeant fluorescent dye as described in Example 1 were placed in a sterilizer and run in a 15 min 121° C. (250° F.) vacuum assisted cycle in a AMSCO Scientific SG-120 Eagle/Century Series steam sterilizer (Steris, Mentor Ohio), and 100 microlitres of the resulting autoclaved spore suspensions and medium were subsequently tested. Un-autoclaved spore suspensions that were subjected to a heat shock treatment at 80° C. for 10 min were tested simultaneously as a control. Spore suspensions (100 microlitres) were combined with 200 microlitres of medium, consisting of Acridine orange dye and nutrients as described in Example 1, that was run through the same steam sterilization cycle as the spores, and each resulting mixture was added to a well of a plate. The plate was subsequently placed in a preheated plate reader (Synergy 4, BioTek, Winooski, Vt.) at 50° C. and incubated for 180 min, during which fluorescence intensity readings using excitation and emission wavelengths of 520 and 580, respectively were taken for at total of 19 readings.

spores = test: Fluorescence over a range of dye concentrations with decreasing concentrations of spores (Example 5); assay type: cell-based, Gb. stearothermophilus; details: for Fluorescence intensity (normalized): ex 485/em 530 nm, 50° C.
Experimental: Dilutions were prepared using Sterile Water For Irrigation (Baxter, Deerfield, Ill.) and tested at a final population ranging between of 1×10^6 and 0 spores. The spore dilutions (100 microlitres) were combined with 200 microlitres of medium, consisting of Acridine Orange and nutrients as described in Example 1, with Acridine Orange concentrations at 1:5000 (0.0066 mM), 1:1000 (0.033 mM) and 1:500 (0.066 mM), each of the resulting mixtures was added to a well of a plate. The plate was subsequently placed in a preheated plate reader (BioTek Synergy 4 plate reader, Winooski, Vt.) at 50° C. and incubated for 60 min, during which fluorescence intensity readings were taken using excitation at 485 nm and emission at 530 nm. A summary of the normalized data is listed below in Table 5a-5c.

SMILES: CN(C)c1ccc2cc3ccc(N(C)C)cc3nc2c1 [Acridine Orange]
- Fluorescence intensity (normalized) ([1]; Autoclaved (dead) Spores, E6, ex 520/em 580, 50° C., 0 min): 0
- Fluorescence intensity (normalized) ([1]; Autoclaved (dead) Spores, E6, ex 520/em 580, 50° C., 30 min): −1468.25
- Fluorescence intensity (normalized) ([1]; Autoclaved (dead) Spores, E6, ex 520/em 580, 50° C., 60 min): −103.5
- Fluorescence intensity (normalized) ([1]; Autoclaved (dead) Spores, E6, ex 520/em 580, 50° C., 90 min): −9.25
- Fluorescence intensity (normalized) ([1]; Autoclaved (dead) Spores, E6, ex 520/em 580, 50° C., 120 min): −49.25
- Fluorescence intensity (normalized) ([1]; Autoclaved (dead) Spores, E6, ex 520/em 580, 50° C., 180 min): −307
- Fluorescence intensity (normalized) ([1]; Autoclaved Spores, 0, ex 520/em 580, 50° C., 0 min): 0
- Fluorescence intensity (normalized) ([1]; Autoclaved Spores, 0, ex 520/em 580, 50° C., 30 min): 375.25
- Fluorescence intensity (normalized) ([1]; Autoclaved Spores, 0, ex 520/em 580, 50° C., 60 min): 1347.25
- Fluorescence intensity (normalized) ([1]; Autoclaved Spores, 0, ex 520/em 580, 50° C., 90 min): 1533.75
- Fluorescence intensity (normalized) ([1]; Autoclaved Spores, 0, ex 520/em 580, 50° C., 120 min): 1491.25
- Fluorescence intensity (normalized) ([1]; Autoclaved Spores, 0, ex 520/em 580, 50° C., 180 min): 1427.75
- Fluorescence intensity (normalized) ([1]; Live Spores (heat shocked), E6, autoclaved dye + nutrient medium, ex 520/em 580, 50° C., 0 min): 0
- Fluorescence intensity (normalized) ([1]; Live Spores (heat shocked), E6, autoclaved dye + nutrient medium, ex 520/em 580, 50° C., 30 min): 6211.5
- Fluorescence intensity (normalized) ([1]; Live Spores (heat shocked), E6, autoclaved dye + nutrient medium, ex 520/em 580, 50° C., 60 min): 8652.5
- Fluorescence intensity (normalized) ([1]; Live Spores (heat shocked), E6, autoclaved dye + nutrient medium, ex 520/em 580, 50° C., 90 min): 9955.5
- Fluorescence intensity (normalized) ([1]; Live Spores (heat shocked), E6, autoclaved dye + nutrient medium, ex 520/em 580, 50° C., 120 min): 10376.5
- Fluorescence intensity (normalized) ([1]; Live Spores (heat shocked), E6, autoclaved dye + nutrient medium, ex 520/em 580, 50° C., 180 min): 10694.25
- Fluorescence intensity (normalized) ([1]; Live Spores, 0, autoclaved dye + nutrient medium, ex 520/em 580, 50° C., 0 min): 0
- Fluorescence intensity (normalized) ([1]; Live Spores, 0, autoclaved dye + nutrient medium, ex 520/em 580, 50° C., 30 min): 522.25
- Fluorescence intensity (normalized) ([1]; Live Spores, 0, autoclaved dye + nutrient medium, ex 520/em 580, 50° C., 60 min): 588.75
- Fluorescence intensity (normalized) ([1]; Live Spores, 0, autoclaved dye + nutrient medium, ex 520/em 580, 50° C., 90 min): 779.75
- Fluorescence intensity (normalized) ([1]; Live Spores, 0, autoclaved dye + nutrient medium, ex 520/em 580, 50° C., 120 min): 870
- Fluorescence intensity (normalized) ([1]; Live Spores, 0, autoclaved dye + nutrient medium, ex 520/em 580, 50° C., 180 min): 886.5
- Dependence of signal on dye concentration (spores; 0.0066, 0.033, 0.066 mM): the higher the signal
- Detection of spores (lowest spore population shown) (spores; all Acridine Orange concentrations (0.0066, 0.033, 0.066 mM)): Detection of E3 spores was shown
- Fluorescence intensity (normalized) (spores; dye 0.0066 mM with nutrients, 0 spores, 0:00:00): 0
- Fluorescence intensity (normalized) (spores; dye 0.0066 mM with nutrients, 0 spores, 0:15:00): 711
- Fluorescence intensity (normalized) (spores; dye 0.0066 mM with nutrients, 0 spores, 0:30:00): 886.5
- Fluorescence intensity (normalized) (spores; dye 0.0066 mM with nutrients, 0 spores, 0:45:00): 1027
- Fluorescence intensity (normalized) (spores; dye 0.0066 mM with nutrients, 0 spores, 1:00:00): 1147.5
- Fluorescence intensity (normalized) (spores; dye 0.0066 mM with nutrients, E3 spores, 0:00:00): 0
- Fluorescence intensity (normalized) (spores; dye 0.0066 mM with nutrients, E3 spores, 0:15:00): 2033
- Fluorescence intensity (normalized) (spores; dye 0.0066 mM with nutrients, E3 spores, 0:30:00): 2271.5
- Fluorescence intensity (normalized) (spores; dye 0.0066 mM with nutrients, E3 spores, 0:45:00): 2396
- Fluorescence intensity (normalized) (spores; dye 0.0066 mM with nutrients, E3 spores, 1:00:00): 2484.5
- Fluorescence intensity (normalized) (spores; dye 0.0066 mM with nutrients, E4 spores, 0:00:00): 0
- Fluorescence intensity (normalized) (spores; dye 0.0066 mM with nutrients, E4 spores, 0:15:00): 3754.5
- Fluorescence intensity (normalized) (spores; dye 0.0066 mM with nutrients, E4 spores, 0:30:00): 4088
- Fluorescence intensity (normalized) (spores; dye 0.0066 mM with nutrients, E4 spores, 0:45:00): 4174
- Fluorescence intensity (normalized) (spores; dye 0.0066 mM with nutrients, E4 spores, 1:00:00): 4268
- Fluorescence intensity (normalized) (spores; dye 0.0066 mM with nutrients, E5 spores, 0:00:00): 0
- Fluorescence intensity (normalized) (spores; dye 0.0066 mM with nutrients, E5 spores, 0:15:00): 5224
- Fluorescence intensity (normalized) (spores; dye 0.0066 mM with nutrients, E5 spores, 0:30:00): 5364
- Fluorescence intensity (normalized) (spores; dye 0.0066 mM with nutrients, E5 spores, 0:45:00): 5373
- Fluorescence intensity (normalized) (spores; dye 0.0066 mM with nutrients, E5 spores, 1:00:00): 5406
- Fluorescence intensity (normalized) (spores; dye 0.0066 mM with nutrients, E6 spores, 0:00:00): 0
- Fluorescence intensity (normalized) (spores; dye 0.0066 mM with nutrients, E6 spores, 0:15:00): 12024.5
- Fluorescence intensity (normalized) (spores; dye 0.0066 mM with nutrients, E6 spores, 0:30:00): 15320
- Fluorescence intensity (normalized) (spores; dye 0.0066 mM with nutrients, E6 spores, 0:45:00): 16514.5
- Fluorescence intensity (normalized) (spores; dye 0.0066 mM with nutrients, E6 spores, 1:00:00): 17130.5
- Fluorescence intensity (normalized) (spores; dye 0.033 mM with nutrients, 0 spores, 0:00:00): 0
- Fluorescence intensity (normalized) (spores; dye 0.033 mM with nutrients, 0 spores, 0:15:00): 740
- Fluorescence intensity (normalized) (spores; dye 0.033 mM with nutrients, 0 spores, 0:30:00): 958
- Fluorescence intensity (normalized) (spores; dye 0.033 mM with nutrients, 0 spores, 0:45:00): 1143.5
- Fluorescence intensity (normalized) (spores; dye 0.033 mM with nutrients, 0 spores, 1:00:00): 1280
- Fluorescence intensity (normalized) (spores; dye 0.033 mM with nutrients, E3 spores, 0:00:00): 0
- Fluorescence intensity (normalized) (spores; dye 0.033 mM with nutrients, E3 spores, 0:15:00): 2022.5
- Fluorescence intensity (normalized) (spores; dye 0.033 mM with nutrients, E3 spores, 0:30:00): 2281
- Fluorescence intensity (normalized) (spores; dye 0.033 mM with nutrients, E3 spores, 0:45:00): 2437
- Fluorescence intensity (normalized) (spores; dye 0.033 mM with nutrients, E3 spores, 1:00:00): 2558.5
- Fluorescence intensity (normalized) (spores; dye 0.033 mM with nutrients, E4 spores, 0:00:00): 0
- Fluorescence intensity (normalized) (spores; dye 0.033 mM with nutrients, E4 spores, 0:15:00): 3467
- Fluorescence intensity (normalized) (spores; dye 0.033 mM with nutrients, E4 spores, 0:30:00): 3640.5
- Fluorescence intensity (normalized) (spores; dye 0.033 mM with nutrients, E4 spores, 0:45:00): 3724
- Fluorescence intensity (normalized) (spores; dye 0.033 mM with nutrients, E4 spores, 1:00:00): 3810.5
- Fluorescence intensity (normalized) (spores; dye 0.033 mM with nutrients, E5 spores, 0:00:00): 0
- Fluorescence intensity (normalized) (spores; dye 0.033 mM with nutrients, E5 spores, 0:15:00): 5012
- Fluorescence intensity (normalized) (spores; dye 0.033 mM with nutrients, E5 spores, 0:30:00): 5029
- Fluorescence intensity (normalized) (spores; dye 0.033 mM with nutrients, E5 spores, 0:45:00): 4999
- Fluorescence intensity (normalized) (spores; dye 0.033 mM with nutrients, E5 spores, 1:00:00): 5068
- Fluorescence intensity (normalized) (spores; dye 0.033 mM with nutrients, E6 spores, 0:00:00): 0
- Fluorescence intensity (normalized) (spores; dye 0.033 mM with nutrients, E6 spores, 0:15:00): 14427.5
- Fluorescence intensity (normalized) (spores; dye 0.033 mM with nutrients, E6 spores, 0:30:00): 19073.5
- Fluorescence intensity (normalized) (spores; dye 0.033 mM with nutrients, E6 spores, 0:45:00): 20802.5
- Fluorescence intensity (normalized) (spores; dye 0.033 mM with nutrients, E6 spores, 1:00:00): 21688
- Fluorescence intensity (normalized) (spores; dye 0.066 mM with nutrients, 0 spores, 0:00:00): 0.0
- Fluorescence intensity (normalized) (spores; dye 0.066 mM with nutrients, 0 spores, 0:15:00): 815.5
- Fluorescence intensity (normalized) (spores; dye 0.066 mM with nutrients, 0 spores, 0:30:00): 1026.0
- Fluorescence intensity (normalized) (spores; dye 0.066 mM with nutrients, 0 spores, 0:45:00): 1184.5
- Fluorescence intensity (normalized) (spores; dye 0.066 mM with nutrients, 0 spores, 1:00:00): 1287.5
- Fluorescence intensity (normalized) (spores; dye 0.066 mM with nutrients, E3 spores, 0:00:00): 0.0
- Fluorescence intensity (normalized) (spores; dye 0.066 mM with nutrients, E3 spores, 0:15:00): 3420.0
- Fluorescence intensity (normalized) (spores; dye 0.066 mM with nutrients, E3 spores, 0:30:00): 3716.0
- Fluorescence intensity (normalized) (spores; dye 0.066 mM with nutrients, E3 spores, 0:45:00): 3902.5
- Fluorescence intensity (normalized) (spores; dye 0.066 mM with nutrients, E3 spores, 1:00:00): 4000.5
- Fluorescence intensity (normalized) (spores; dye 0.066 mM with nutrients, E4 spores, 0:00:00): 0.0
- Fluorescence intensity (normalized) (spores; dye 0.066 mM with nutrients, E4 spores, 0:15:00): 3261.5
- Fluorescence intensity (normalized) (spores; dye 0.066 mM with nutrients, E4 spores, 0:30:00): 3464.0
- Fluorescence intensity (normalized) (spores; dye 0.066 mM with nutrients, E4 spores, 0:45:00): 3586.5
- Fluorescence intensity (normalized) (spores; dye 0.066 mM with nutrients, E4 spores, 1:00:00): 3626.5
- Fluorescence intensity (normalized) (spores; dye 0.066 mM with nutrients, E5 spores, 0:00:00): 0.0
- Fluorescence intensity (normalized) (spores; dye 0.066 mM with nutrients, E5 spores, 0:15:00): 3422.5
- Fluorescence intensity (normalized) (spores; dye 0.066 mM with nutrients, E5 spores, 0:30:00): 3533.0
- Fluorescence intensity (normalized) (spores; dye 0.066 mM with nutrients, E5 spores, 0:45:00): 3606.0
- Fluorescence intensity (normalized) (spores; dye 0.066 mM with nutrients, E5 spores, 1:00:00): 3616.0
- Fluorescence intensity (normalized) (spores; dye 0.066 mM with nutrients, E6 spores, 0:00:00): 0.0
- Fluorescence intensity (normalized) (spores; dye 0.066 mM with nutrients, E6 spores, 0:15:00): 13727.5
- Fluorescence intensity (normalized) (spores; dye 0.066 mM with nutrients, E6 spores, 0:30:00): 15331.5
- Fluorescence intensity (normalized) (spores; dye 0.066 mM with nutrients, E6 spores, 0:45:00): 15529.5
- Fluorescence intensity (normalized) (spores; dye 0.066 mM with nutrients, E6 spores, 1:00:00): 15629.0
